The values that follow come from PMC9788182, “Natural Compounds as Non-Nucleoside Inhibitors of Zika Virus Polymerase through Integration of In Silico and In Vitro Approaches” (Pharmaceuticals, 2022).

Read-outs that look alike come from different tables or passages of the source.

In one data set the target is ZIKV NS5 RdRp (Zika virus, UniProt Q32ZE1). Put plainly: ZIKV NS5-RdRp activity assays (endpoint and concentration-response). The class given is biochemical. Particulars: for inhibition at 20 µM: endpoint assay at 20 µM, read-out: inhibitory activity against ZIKV RdRp. How it is done:
Nine prioritized hits were submitted to endpoint assay at 20 µM to verify their inhibitory activity against ZIKV RdRp. […] Pedalitin and quercetin were the only ones with activity greater than 80%, with inhibitory activity of 97% and 99%, respectively, and consequently were selected for the concentration-response assays.
We then investigated ZIKV RdRp activity in the presence of pedalitin and quercetin.
ZIKV NS5-RdRp activity assays were performed as described by Fernandes and coworkers. The endpoint assays were performed at 20 μM, and the compounds that inhibited more than 80% of activity in this assay were submitted to a concentration-response test. The concentration-responses assays were performed as described in [94]. In all cases, the percentage inhibition values were calculated based on a control reaction, containing only DMSO in the same concentrations used for the tested compounds. The results were analyzed and plotted using the GraphPad Prism v. 8.0 program.

The test system of the next data set is ZIKV^BR. Nature of the data set: Antiviral assay, Vero cells infected with ZIKV^BR, foci by immunofluorescence. The class given is cell-based, Zika virus. The following applies: for SI (selectivity index): SI = CC50/EC50, Vero cells; for EC50: Zika virus, read-out: EC50 ZIKV. As for the experimental part: The anti-ZIKV activities of the pedalitin and quercetin were further investigated through the employment of Vero cells infected with ZIKV wild type (ZIKV^BR) (Figure 6). […] Vero cells were infected with ZIKV^BR and simultaneously treated with pedalitin or quercetin at concentrations ranging from 200 µM to 0.005 µM for 72 h when viral replication rates were assessed (Figure 6). Cell viability analysis was performed in parallel (Figure 6).
Vero cells were seeded at density of 5 × 10^3 cells per well into 96-well plates 24 h prior to the infection. ZIKV-WT^BR at a multiplicity of infection (MOI) of 0.1 and compound at concentrations ranging from 200 to 0.005 µM were simultaneously added to cells. 72 h post-infection (h.p.i.), cells were fixed with paraformaldehyde 4%, washed with PBS and blocking buffer (BB) containing: 0.1% Triton X-100 (Vetec Labs, PR, BR), 0.2% bovine albumin (BSA) and PBS for 30 min. Then, cells were incubated with primary rabbit polyclonal anti-NS3 antibody diluted in BB for 1 h. Alexa Fluor 488 conjugated anti-rabbit IgG was used as secondary antibody (Abcam, Cambridge, UK). Images were analyzed by EVO cell imaging systems fluorescence microscopy (Thermo Fisher Scientific, OH, USA) and foci of infection were counted. The antiviral activity was calculated according to the equation (T/C) × 100%, where T and C represent the mean of the treated group and mean of the […], respectively. […] 8. The values of CC50 and EC50 were used to calculate the selectivity index (SI = CC50/EC50).

A further data set can be described thus: Cell viability, MTT. Particulars: African green monkey, Vero cells. The class given is cell-based. As for the experimental part:
Cell viability was measured by the MTT [3-(4,5-dimethylthiazol-2-yl)-2,5-diphenyl tetrazolium bromide] (Sigma–Aldrich) method. Vero cells were seeded in a 96-well plate at a density of 5 × 10^3 cells per well and incubated overnight at 37 °C in a humidified 5% CO2 incubator. A drug-containing medium at concentrations ranging from 200 to 0.005 µM was added to the cell culture. After 72 h at 37 °C, the media was removed and a solution containing MTT at the final concentration of 1 mg/mL was added to each well and incubated for 30 min at 37 °C in a humidified 5% CO2 incubator, after which media was replaced with 100 μL of DMSO to solubilize the formazan crystals. Absorbance was measured by the optical density (OD) of each well at 490 nm, using a spectrophotometer. Cell viability was calculated according to the equation (T/C) × 100%, where T and C represent the mean optical density of the treated group and vehicle control group, respectively. […] 8 [95].

A further data set concerns DENV-2 virus. Also noted: method as in PMID 22201648. The following applies: Vero cells, cited from earlier work.
For the next data set, the system named is SARS-CoV-2 RdRp. Set-up: method as in PMID 35732785. The following applies: cited from earlier work.
A further data set has as its system DENV RdRP. Particulars: ref 31 (10), ref 21 (11), ref 30 (12); cited from earlier work.
Another data set deals with DENV1 RdRP. Also noted: method as in earlier work. Particulars: ref 49 (13), ref 8 (14), ref 24 (15); cited from earlier work.
A further data set relates to DENV4 RdRP. Also noted: method as in earlier work. The following applies: ref 49 (13), ref 8 (14), ref 24 (15); cited from earlier work.
In another data set the test system is DENV3 RdRP. Also noted: method as in earlier work. The following applies: ref 49 (13), ref 8 (14), ref 24 (15); cited from earlier work.
The subject of a further data set is DENV2 RdRP. Set-up: method as in earlier work. Particulars: ref 49 (13), ref 8 (14), ref 24 (15); cited from earlier work.
Data set [1] relates to ZIKV RdRp. Set-up: method as in PMID 31310806. The following applies: cited from earlier work.
Data set [2] concerns Japanese encephalitis virus (JEV). Particulars: cited from earlier work.
The next data set relates to ZIKV. Also noted: method as in PMID 30392049. The following applies: Vero cells; cited from earlier work.
Another data set concerns DENV-2. Set-up: method as in PMID 34126315, PMID 24965553. The following applies: read-out: DENV2 EC50; cited from earlier work.
Data set [3] concerns ZIKV RdRp. Also noted: method as in PMID 28098253. The following applies: cited from earlier work.

Chain of ZIKV NS5 RdRp (Q32ZE1 2822-3419): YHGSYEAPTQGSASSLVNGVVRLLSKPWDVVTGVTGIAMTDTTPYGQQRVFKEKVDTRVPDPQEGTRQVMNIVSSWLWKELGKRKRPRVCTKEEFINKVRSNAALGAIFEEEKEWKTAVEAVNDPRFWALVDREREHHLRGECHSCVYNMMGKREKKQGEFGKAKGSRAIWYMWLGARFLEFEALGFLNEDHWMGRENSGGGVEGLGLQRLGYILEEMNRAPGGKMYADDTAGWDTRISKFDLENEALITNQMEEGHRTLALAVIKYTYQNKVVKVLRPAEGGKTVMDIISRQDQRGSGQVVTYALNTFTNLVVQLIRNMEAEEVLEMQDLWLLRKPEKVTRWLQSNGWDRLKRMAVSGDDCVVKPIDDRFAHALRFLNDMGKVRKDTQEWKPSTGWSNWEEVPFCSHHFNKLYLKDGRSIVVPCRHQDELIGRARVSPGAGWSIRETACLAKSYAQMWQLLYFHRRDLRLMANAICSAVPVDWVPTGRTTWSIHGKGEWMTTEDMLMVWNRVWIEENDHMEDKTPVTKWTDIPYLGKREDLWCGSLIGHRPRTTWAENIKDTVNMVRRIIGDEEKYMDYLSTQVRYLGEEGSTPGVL

As usually defined, the IC50 is the concentration at which inhibition is half-maximal. The term EC50 denotes the concentration giving half of the maximal effect. Broadly, the CC50 is the concentration that lowers cell viability or growth by half. Lower therefore signals greater toxicity to the cells. Take `COc1cc2oc(-c3ccc(O)c(O)c3)cc(=O)c2c(O)c1O` [Compound 8, Pedalitin]: at ZIKV NS5 RdRp, half-maximal inhibition (IC50) required 4.1 ± 0.3 µM and the inhibition at 20 µM amounted to 97%. The “SI (selectivity index)” value in the data set on ZIKV^BR was found to be 4.34. In addition, the concentration giving a half-maximal response (EC50) in the data set on ZIKV^BR (Vero, 72 h) was 19.3 µM. Besides, it took 83.7 µM to reach half-maximal cytotoxicity in the data set “Cell viability, MTT” (CC50 at 72 h).

In the case of `O=c1c(O)c(-c2ccc(O)c(O)c2)oc2cc(O)cc(O)c12` [Compound 9, Quercetin], the IC50 was 0.5 ± 0.1 µM on ZIKV NS5 RdRp (concentration-response, 80 µM to 0.156 µM, read-out: IC50 ZIKV RdRp) and 6.9 µM in the data set with SARS-CoV-2 RdRp. The inhibition at 20 µM on ZIKV NS5 RdRp turned out to be 99%. Further, the “SI (selectivity index)” value in the data set with ZIKV^BR came out at 2.03. Moreover, the 50% effective concentration (EC50) was 17.7 µM with ZIKV^BR (Vero cells, ZIKV^BR MOI 0.1, 72 h, 200 to 0.005 µM) and 95.6 µM in the data set with DENV-2 virus (administration after viral adsorption). The same compound gave a CC50 at 72 h in “Cell viability, MTT” of 36 µM. Also, the “reduction of DENV-2 replication” value with DENV-2 virus (concentration of 165.4 µM) is on record as 67%.

On to `O=C(O)CCCC(/C=C/c1ccccc1)c1c(O)c(C(CCCC(=O)O)CCc2ccccc2)c(O)c2c(=O)cc(-c3ccccc3)oc12` (stereo not drawn) [Compound 11, chartaceone D], for which, in the data set on DENV RdRP, the IC50 is 1.8 ± 1.2 µM.

Regarding `COc1cc(O)c2c(=O)c(O)c(-c3ccc(O)c(O)c3)oc2c1` [Compound 12, rhamnetin], the IC50 in the data set on DENV RdRP is 2.2 ± 0.2 µM.

Regarding `O=C(Cc1ccccc1Nc1c(Cl)cccc1Cl)NC1(C(=O)O)Cc2ccccc2C1` [Compound 13, bis-chloro-diphenylamine, 2-aminoindan-2-carboxyl derivative], the IC50 in the data set on DENV1 RdRP was 6.6 ± 1.3 µM; in the data set on DENV4 RdRP, 6.1 ± 1 µM; with DENV3 RdRP, 12.8 ± 1.3 µM; in the data set with DENV2 RdRP, 16.5 ± 1.8 µM.

As for `COc1cccc(S(=O)(=O)NC(=O)c2cc(-c3ccc(C#CCO)s3)c(OC)cc2OC)c1` [Compound 14, 5-(5-(3-Hydroxyprop-1-yn-1-yl)thiophen-2-yl)-2,4-dimethoxy-N-((3-methoxyphenyl)sulfonyl)benzamide], the IC50 in the data set with DENV1 RdRP is 0.068 µM; with DENV4 RdRP it was 0.172 ± 0.097 µM; in the data set with DENV3 RdRP it was 0.048 µM; with DENV2 RdRP it was 0.106 µM.

`COc1cc(C)c(C(=O)NS(=O)(=O)c2cccc3cccnc23)cc1-c1ccc(C#CCO)s1` [Compound 15, 5-(5-(3-Hydroxyprop-1-yn-1-yl)thiophen-2-yl)-4-methoxy-2-methyl-N-(quinolin-8-ylsulfonyl)benzamide]: the IC50 in the data set with DENV1 RdRP was 0.013 µM; in the data set on DENV4 RdRP, 0.023 ± 0.01 µM; in the data set on DENV3 RdRP, 0.016 µM; with DENV2 RdRP, 0.038 µM.

Regarding `C=CCCCCCCCCC(=O)O` [Compound 17, undecylenic acid], the half-maximal effective concentration (EC50) in the data set on ZIKV RdRp [1] is 7.43 µM.

Turning to `O=c1cc(-c2ccccc2)oc2cc(O)c(O)c(O)c12` [Compound 18, baicalein], the “JEV ED50” value in data set [2] (Figure 4) was 27 µM. Besides, the EC50 in [2] is 27 ± 4 µM; with ZIKV, 0.004 µM; with DENV-2 it was 55.1 µM.

With `O=C(O)[C@H]1O[C@@H](Oc2cc3oc(-c4ccccc4)cc(=O)c3c(O)c2O)[C@H](O)[C@@H](O)[C@@H]1O` [Compound 19, baicalin], in the data set with ZIKV, the EC50 was 14 µM.

Consider `CC(C)OC(=O)[C@H](C)N[P@](=O)(OC[C@H]1O[C@@H](n2ccc(=O)[nH]c2=O)[C@](C)(F)[C@@H]1O)Oc1ccccc1` [Sofosbuvir, sofosbuvir], for which the IC50 with ZIKV RdRp [3] is 0.38 ± 0.03 µM.

As to `O=c1cc(-c2ccc(O)c(O)c2)oc2cc(O)cc(O)c12` [luteolin], the IC50 with SARS-CoV-2 RdRp is 4.6 µM.

For the compound podocarpusflavone A [Compound 10], in the data set with DENV RdRP, the IC50 is 0.16 ± 0.02 µM.
